# Key:
# primary mouse RGCs = experiment: Retinal ganglion cell (RGC) viability assay (CellTiter-Glo); type: cell-based; conditions: concentrations as high as 10 mg/mL; with 1 μM sunitinib malate; 72 h
# Procedure: Mouse RGCs were purified as described ny Welsbie, D. S., et al., Proceedings of the National Academy of Sciences of the United States of America, 2013. 110(10): p. 4045-4050. Purified cells were plated on a poly-D-lysine/laminin coated 384-well culture dish at 4,000 cells per well and cultured in Neurobasal media supplemented with B-27, N-2, L-glutamine, and penicillin/streptomycin. Sunitinib malate (1 μM) was dissolved in dimethyl sulfoxide (DMSO) and added at the same time cells were plated (250 nL into 50 μL of media) to promote RGC survival. Then, either PBS or different volumes of sodium pamoate dissolved in DMSO was added at the concentrations indicated (0.1, 1, 10 mg/mL) to determine whether there was any effect on RGC survival. A PBS control was included for each pamoic acid concentration to account for dilutional effects. After cells were cultured for 72 h at 37° C., viability was measured by CellTiter-Glo (Promega) luminescence.
# [1] = test system: corneal neovascularization; conditions: rats; cited from earlier work
# physchem = conditions: 37 °C, aqueous buffer, thermodynamic from solid
# Procedure: To measure solubility, 5 mg of sunitinib malate or SPC complex was placed in microcentrifuge tubes with 1 mL of PBS. The samples were then placed on an orbital shaker (150 rpm) in an incubator at 37° C. After 7 days, samples were collected and centrifuged at 17,000 rcf for 30 min. The supernatant was collected, and concentrations were measured using HPLC (Shimadzu Prominence LC-20). Supernatant samples were mixed 1:10 with acetonitrile containing 0.1% trifluoroacetic acid. Acetonitrile and water was used as a mobile phase at a ratio of 55:45. Samples were eluted isocratically at a flow rate of 1 mL/min through a C18-reversed phase column at 40° C. UV absorbance was monitored at 431 nm.
Compound,effect on primary mouse RGC survival compared to PBS (primary mouse RGCs),effect on corneal neovascularization after subconjunctival injection [1],solubility at 7 days (physchem) [µg/mL]
O=C(O)c1cc2ccccc2c(Cc2c(O)c(C(=O)O)cc3ccccc23)c1O [Pamoic acid],no detrimental effect,–,–
"CCN(CC)CCNC(=O)c1c(C)[nH]c(/C=C2\C(=O)Nc3ccc(F)cc32)c1C [sunitinib malate, Sunitinib malate]",–,no effect on neovascularization,525 ± 63
